Data from PMC5404560, “Towards Selective Mycobacterial ClpP1P2 Inhibitors with Reduced Activity against the Human Proteasome” (Antimicrobial Agents and Chemotherapy, 2017).
Converted amounts (≈) assume the structure as drawn. Read-outs that look alike come from different tables or passages of the source. Marks after values point to notes of the source that are not given here.

Tests used:
[1] = test system: M. tuberculosis; test: Bactericidal activity (MBC99.9); assay type: cell-based; details: Mycobacterium tuberculosis; concentration required to kill 99.9% of the bacterial population
[2] = test system: panel of 62 proteases; test: Protease selectivity panel, overall; assay type: biochemical
Procedure: (§3) Protease panel testing was carried out by Reaction Biology Corporation.

[3] = test system: M. tuberculosis H37Rv; test: microbe, parasite or virus in culture; assay type: cell-based
[4] = biological target: Kallikrein 7 (Homo sapiens, UniProt P49862); test: Protease panel: Kallikrein 7; assay type: biochemical; details: Table 6; 10-dose response, top 10 μM
Procedure: as §3

[5] = Thermodynamic aqueous solubility; assay type: physicochemical; details: thermodynamic from solid
Procedure: (§1) A parallel artificial-membrane permeability assay (PAMPA) and mouse liver microsome (MLM), human liver microsome (HLM), aqueous solubility, Log D, protein binding, and cytochrome P450 2D6 and 3A4 assays were carried out at Piramal Pharma Solutions.

[6] = biological target: Kallikrein 1 (Homo sapiens, UniProt P06870); test: Protease panel: Kallikrein 1; assay type: biochemical; details: Table 6; 10-dose response, top 10 μM
Procedure: as §3

[7] = Human liver microsome stability; assay type: in vitro ADME; details: liver microsomes, read-out: HLM t1/2
Procedure: as §1

[8] = biological target: T1, Plasma kallikrein (Homo sapiens, UniProt P03952); test: Protease panel: Plasma kallikrein; assay type: biochemical; details: Table 6; 10-dose response, top 10 μM
T1 construct: Reaction Biology Corporation (contract testing)
Procedure: as §3

[9] = Parallel artificial-membrane permeability assay (PAMPA); assay type: in vitro ADME; details: read-out: PAMPA Pe
Procedure: as §1

[10] = biological target: HepG2 proteasome (Homo sapiens, UniProt P20618+P28074); test: Cell-based proteasome CT-like peptidase inhibition assay (Proteasome-Glo)
Procedure: A cell-based CT-like peptidase assay was performed using the Proteasome-Glo cell-based assay reagent (Promega) according to the manufacturer's guidelines. Briefly, HepG2 cells (10^4 cells/well) were treated with the compounds indicated in the figures for 2 h, followed by incubation with the luminescent substrate for 10 min. Luminescence was detected with a Tecan M200 Pro plate reader.

[11] = biological target: T2, CYP450 2D6 (Homo sapiens, UniProt P10635); test: Recombinant cytochrome P450 enzyme assay, 2D6; assay type: in vitro ADME; details: highest concentration tested 10 μM
T2 construct: Piramal Pharma Solutions (contract laboratory)
Procedure: as §1

[12] = test system: Mycobacterium bovis BCG; test: microbe, parasite or virus in culture; assay type: cell-based; details: Mycobacterium tuberculosis variant bovis BCG, read-out: MIC50 for Mycobacterium bovis BCG
[13] = Mouse liver microsome stability; assay type: in vitro ADME; details: liver microsomes, read-out: MLM t1/2
Procedure: as §1

[14] = Log D (octanol/PBS); assay type: physicochemical; details: pH 7.4, read-out: Log D (measured at pH 7.4)
Procedure: as §1

[15] = test system: Vero cells; test: MTS cytotoxicity assay, Vero; assay type: cell-based; details: fold higher
Procedure: (§2) The MTS (Promega) reduction assay was used according to manufacturer's guidelines to assess Vero (ATCC […]) and HepG2 (ATCC HB-8065) cell viability. […] Carbonyl cyanide m-chlorophenylhydrazone (CCCP) was used as a cytotoxic positive control. Cytotoxicity was determined twice in independent experiments.

[16] = MTS cytotoxicity assay, Vero; assay type: cell-based; details: African green monkey; MTS assay; read-out: GI50, Vero cells
Procedure: as §2

[17] = Plasma protein binding, mouse; assay type: in vitro ADME; details: bound, read-out: Plasma protein binding in mice (%) (converted)
Procedure: as §1

[18] = test system: HepG2 cells; test: MTS cytotoxicity assay, HepG2; assay type: cell-based, human; details: fold higher
Procedure: as §2

[19] = MTS cytotoxicity assay, HepG2; assay type: cell-based, human; details: human; MTS assay; read-out: GI50, HepG2 cells
Procedure: as §2

[20] = biological target: Chymase (Homo sapiens, UniProt P23946); test: Protease panel: Chymase; assay type: biochemical; details: Table 6; 10-dose response, top 10 μM
Procedure: as §3

[21] = Intravenous/oral pharmacokinetics and tissue distribution in mice; assay type: in vivo; details: for Vd: 10 mg/kg
Procedure: Female ICR mice (aged ∼6 to ∼8 weeks; 3 animals per time point) were used for all studies. Studies were performed as per approved internal protocols for animal care and use. Doses were administered as clear solutions in 50% polyethylene glycol 400 (PEG400) plus […] (D5W). Animals were sacrificed by overdose of CO2, and blood was collected through cardiac puncture at 5 min (10 min per os [p.o.]), 30 min, and 1, 2, 4, 8, 16, and 24 h after administration in tubes containing K3 EDTA as an anticoagulant. The samples were centrifuged, and the plasma was separated and stored at −70°C until analysis. Plasma samples were processed and analyzed by LC-tandem MS. Pharmacokinetic parameters were estimated by noncompartmental methods using WinNonlin (version 5.2; Pharsight, CA).

[22] = Plasma protein binding, human; assay type: in vitro ADME; details: bound, read-out: Plasma protein binding in humans (%) (converted)
Procedure: as §1

[23] = test system: M. smegmatis ΔprcAB; assay type: cell-based
[24] = biological target: T3, CYP450 3A4 (Homo sapiens, UniProt P08684); test: Recombinant cytochrome P450 enzyme assay, 3A4; assay type: in vitro ADME; details: highest concentration tested 10 μM
T3 construct: Piramal Pharma Solutions (contract laboratory)
Procedure: as §1

T2 sequence (P10635 whole entry): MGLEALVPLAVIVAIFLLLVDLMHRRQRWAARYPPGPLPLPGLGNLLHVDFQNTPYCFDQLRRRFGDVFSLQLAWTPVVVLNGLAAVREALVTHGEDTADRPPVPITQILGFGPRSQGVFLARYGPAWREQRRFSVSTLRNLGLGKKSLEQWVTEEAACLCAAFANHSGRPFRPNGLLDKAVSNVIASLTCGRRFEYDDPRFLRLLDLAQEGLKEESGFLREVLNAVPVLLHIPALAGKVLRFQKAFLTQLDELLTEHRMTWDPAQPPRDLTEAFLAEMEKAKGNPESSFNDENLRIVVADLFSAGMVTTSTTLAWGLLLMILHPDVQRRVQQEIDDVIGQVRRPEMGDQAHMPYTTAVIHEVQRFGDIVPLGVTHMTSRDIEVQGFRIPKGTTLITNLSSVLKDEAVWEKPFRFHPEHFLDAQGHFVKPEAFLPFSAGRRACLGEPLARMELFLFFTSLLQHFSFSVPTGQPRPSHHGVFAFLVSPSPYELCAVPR
T3 sequence (P08684 whole entry): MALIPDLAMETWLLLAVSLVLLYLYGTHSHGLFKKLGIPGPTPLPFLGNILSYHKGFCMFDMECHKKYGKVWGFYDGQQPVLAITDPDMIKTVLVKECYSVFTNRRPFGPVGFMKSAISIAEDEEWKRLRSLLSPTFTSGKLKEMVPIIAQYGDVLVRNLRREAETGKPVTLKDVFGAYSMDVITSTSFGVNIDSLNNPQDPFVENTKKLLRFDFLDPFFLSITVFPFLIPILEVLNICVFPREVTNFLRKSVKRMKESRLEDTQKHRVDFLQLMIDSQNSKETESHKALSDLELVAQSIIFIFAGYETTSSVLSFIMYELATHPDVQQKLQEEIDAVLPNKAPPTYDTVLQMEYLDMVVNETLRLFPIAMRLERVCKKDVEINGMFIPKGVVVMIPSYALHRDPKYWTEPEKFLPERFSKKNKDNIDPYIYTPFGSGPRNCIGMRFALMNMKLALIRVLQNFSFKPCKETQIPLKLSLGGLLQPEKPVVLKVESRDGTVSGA
Sequence of Chymase (P23946 22-247, species assumed): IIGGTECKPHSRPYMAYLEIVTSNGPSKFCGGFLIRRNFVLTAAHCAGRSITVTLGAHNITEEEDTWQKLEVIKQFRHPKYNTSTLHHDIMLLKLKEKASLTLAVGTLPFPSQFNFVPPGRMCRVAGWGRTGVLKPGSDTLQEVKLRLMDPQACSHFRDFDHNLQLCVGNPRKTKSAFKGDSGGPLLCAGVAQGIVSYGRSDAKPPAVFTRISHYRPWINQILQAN
T1 sequence (P03952 20-638, species assumed): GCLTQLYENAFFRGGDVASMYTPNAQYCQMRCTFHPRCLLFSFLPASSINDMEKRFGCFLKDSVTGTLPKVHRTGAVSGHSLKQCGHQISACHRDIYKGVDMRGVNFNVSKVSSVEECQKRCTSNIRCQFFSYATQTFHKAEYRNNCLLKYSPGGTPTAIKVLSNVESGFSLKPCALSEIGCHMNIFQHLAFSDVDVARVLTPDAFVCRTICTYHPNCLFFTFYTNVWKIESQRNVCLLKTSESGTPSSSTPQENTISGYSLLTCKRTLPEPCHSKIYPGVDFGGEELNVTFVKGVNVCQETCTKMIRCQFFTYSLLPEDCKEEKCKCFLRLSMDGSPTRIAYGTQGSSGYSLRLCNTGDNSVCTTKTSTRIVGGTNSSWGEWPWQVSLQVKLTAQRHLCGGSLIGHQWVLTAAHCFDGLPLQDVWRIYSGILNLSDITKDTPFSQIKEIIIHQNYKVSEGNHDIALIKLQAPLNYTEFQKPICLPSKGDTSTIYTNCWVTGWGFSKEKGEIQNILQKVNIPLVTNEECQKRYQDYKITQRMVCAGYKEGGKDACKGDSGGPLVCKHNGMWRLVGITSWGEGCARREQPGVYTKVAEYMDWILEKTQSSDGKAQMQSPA
Sequence of Kallikrein 7 (P49862 30-253, species assumed): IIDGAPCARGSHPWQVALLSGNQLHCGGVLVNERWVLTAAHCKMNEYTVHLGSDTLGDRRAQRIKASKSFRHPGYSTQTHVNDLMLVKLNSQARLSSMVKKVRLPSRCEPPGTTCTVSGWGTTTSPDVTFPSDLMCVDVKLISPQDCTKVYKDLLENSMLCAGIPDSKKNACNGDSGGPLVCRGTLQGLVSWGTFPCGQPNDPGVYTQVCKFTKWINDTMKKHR
Sequence of Kallikrein 1 (P06870 25-262, species assumed): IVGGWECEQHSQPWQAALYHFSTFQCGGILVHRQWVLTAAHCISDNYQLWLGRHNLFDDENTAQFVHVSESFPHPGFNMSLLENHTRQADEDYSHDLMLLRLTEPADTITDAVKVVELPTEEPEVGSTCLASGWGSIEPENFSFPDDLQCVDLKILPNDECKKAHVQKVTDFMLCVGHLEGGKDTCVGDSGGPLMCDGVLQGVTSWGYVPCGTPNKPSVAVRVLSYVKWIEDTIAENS

SMILES: O=C(N[C@@H](Cc1ccccn1)C(=O)N[C@@H](CCc1ccccc1)B(O)O)c1cnccn1 [Compound 58, ((R)-3-phenyl-1-((S)-2-(pyrazine-2-carboxamido)-3-(pyridin-2-yl)propanamido)propyl)boronic acid]
- MBC [1]: 50 µM (≈ 21.7 µg/mL)
- share of panel of 62 proteases inhibited with a submicromolar IC50 ([2]; 2/62): 3%
- share of panel of 62 proteases inhibited with an IC50 between 1 to 10 μM ([2]; 5/62): 8%
- share of panel of 62 proteases against which active (<10 μM) ([2]; top concentration tested 10 μM): 11%
- MIC50 (μM) against M. tuberculosis H37Rv ([3]; 5 days): 2.5 ± 1.3^b μM
- MIC90 (μM) against M. tuberculosis H37Rv ([3]; 5 days): 6 ± 2.8 µM (≈ 2.6 µg/mL)
- MIC90 concentration relative to MIC50 (fold higher) ([3]; H37Rv): < 3 fold
- MIC50 ([3]; Mycobacterium tuberculosis, H37RV, 120 h, 5 days, read-out: MIC50 (μM) against M. tuberculosis H37Rv): 2.5 µM
- MIC90 ([3]; Mycobacterium tuberculosis, H37RV, 120 h, 5 days, read-out: MIC90 (μM) against M. tuberculosis H37Rv): 6 µM (≈ 2.6 µg/mL)
- MIC50 ([3]; Mycobacterium tuberculosis, H37RV, read-out: MIC50-TB): 1.08 µg/mL
- IC50 [4]: 9.31 µM
- solubility ([5]; aqueous medium at pH 7.4, aqueous buffer, pH 7.4, text, read-out: aqueous solubility): > 400 µg/mL
- solubility ([5]; aqueous solution at pH 4, aqueous buffer, thermodynamic, pH 4, read-out: Aq solubility (μg/ml) at pH 4): 422 µg/mL (≈ 973 µM)
- solubility ([5]; aqueous solution at pH 7.4, aqueous buffer, thermodynamic, pH 7.4, read-out: Aq solubility (μg/ml) at pH 7.4): 450 µg/mL (≈ 1040 µM)
- IC50 [6]: 6.03 µM
- half-life [7]: > 24 min
- IC50 [8]: 4.4 µM
- Papp [9]: 3.5 ×10⁻⁶ cm/s
- IC50 [10]: 367 ± 103 nM
- IC50 [11]: > 10 µM
- MIC50 [12]: 1.5 µM (≈ 0.65 µg/mL)
- half-life [13]: ~8 min
- logD [14]: 2.96
- GI50 relative to M. tuberculosis growth-inhibitory potency, Vero [15]: 200 fold
- GI50 [16]: 500 µM
- fraction unbound [17]: 0.0954
- GI50 relative to M. tuberculosis growth-inhibitory potency, HepG2 [18]: 200 fold
- GI50 [19]: 500 µM
- IC50 [20]: 5.75 µM
- abnormal clinical signs for up to 24 h after injection ([21]; 10 mg/kg i.v.): No abnormal clinical signs were observed
- acute side effects during tail vein injection ([21]; 10 mg/kg i.v.): No acute side effects were observed
- time concentrations remained above anti-M. tuberculosis MIC50 ([21]; 10 mg/kg i.v.): approximately 4 h
- maximum concentration ([21]; 10 mg/kg i.v., plasma): 32.7 µM
- AUC0–t(last) in brain ([21]; 100 mg/kg p.o., brain): 286 ng·h/g
- AUC0–t(last) in lung ([21]; 100 mg/kg p.o., lung): 16,253 ng · h/g
- C0 ([21]; female, ICR, mouse, iv, 10 mg/kg i.v., plasma, read-out: C0 (maximum concentration)): 14200 ng/mL
- AUC(0-inf) ([21]; female, ICR, mouse, plasma, iv, 10 mg/kg i.v., read-out: AUC0-inf): 21100 ng·h/mL
- AUC(0-t) ([21]; female, ICR, mouse, plasma, iv, 10 mg/kg i.v., read-out: AUC0-t(last)): 20800 ng·h/mL
- clearance ([21]; female, ICR, mouse, plasma, iv, 10 mg/kg i.v., read-out: CL (systemic plasma clearance) (converted)): 8.33 mL/min/kg
- half-life ([21]; female, ICR, mouse, plasma, iv, 10 mg/kg i.v., read-out: T½ (elimination half-life) (converted)): 222 min
- Vd ([21]; female, ICR, mouse, plasma, iv, 10 mg/kg i.v., read-out: Vss): 2.1 L/kg
- Vd ([21]; female, ICR, mouse, plasma, iv, 10 mg/kg i.v., read-out: Vz): 2.5 L/kg
- Tmax ([21]; female, ICR, mouse, plasma, lung, brain, po, 100 mg/kg p.o., read-out: Tmax (converted)): 10 min
- bioavailability ([21]; female, ICR, mouse, plasma, oral, 10 mg/kg p.o. vs 10 mg/kg i.v., read-out: F (absolute oral bioavailability)): 14%
- AUC(0-inf) ([21]; female, ICR, mouse, plasma, po, 10 mg/kg p.o., read-out: AUC0-inf): 2870 ng·h/mL
- AUC(0-t) ([21]; female, ICR, mouse, plasma, po, 10 mg/kg p.o., read-out: AUC0-t(last)): 2840 ng·h/mL
- Tmax ([21]; female, ICR, mouse, plasma, po, 10 mg/kg p.o., read-out: Tmax (converted)): 30 min
- half-life ([21]; female, ICR, mouse, plasma, po, 10 mg/kg p.o., read-out: T½ (converted)): 234 min
- Cmax ([21]; female, ICR, mouse, po, 10 mg/kg p.o., plasma, read-out: Cmax): 798 ng/mL
- AUC(0-inf) ([21]; female, ICR, mouse, po, 100 mg/kg p.o., brain, Fig. 10B, read-out: AUC0-inf, Brain): 378 ng·h/mL
- AUC(0-t) ([21]; female, ICR, mouse, po, 100 mg/kg p.o., brain, Fig. 10B, read-out: AUC0-t(last), Brain): 286 ng·h/mL
- Cmax ([21]; female, ICR, mouse, po, 100 mg/kg p.o., brain, read-out: Cmax in brain): 93 ng/g
- Tmax ([21]; female, ICR, mouse, po, 100 mg/kg p.o., brain, read-out: Tmax, Brain): 12 min
- half-life ([21]; female, ICR, mouse, po, 100 mg/kg p.o., brain, read-out: T½, Brain (converted)): 12 min
- AUC(0-inf) ([21]; female, ICR, mouse, po, 100 mg/kg p.o., lung, Fig. 10B, read-out: AUC0-inf, Lung): 17000 ng·h/mL
- AUC(0-t) ([21]; female, ICR, mouse, po, 100 mg/kg p.o., lung, Fig. 10B, read-out: AUC0-t(last), Lung): 16300 ng·h/mL
- Cmax ([21]; female, ICR, mouse, po, 100 mg/kg p.o., lung, read-out: Cmax in lung): 3370 ng/g
- Tmax ([21]; female, ICR, mouse, po, 100 mg/kg p.o., lung, read-out: Tmax, Lung): 12 min
- half-life ([21]; female, ICR, mouse, po, 100 mg/kg p.o., lung, read-out: T½, Lung (converted)): 18 min
- AUC(0-inf) ([21]; female, ICR, mouse, po, 100 mg/kg p.o., plasma, read-out: AUC0-inf, Plasma): 23600 ng·h/mL
- AUC(0-t) ([21]; female, ICR, mouse, po, 100 mg/kg p.o., plasma, read-out: AUC0-t(last), Plasma): 22800 ng·h/mL
- Cmax ([21]; female, ICR, mouse, po, 100 mg/kg p.o., plasma, read-out: Cmax, Plasma): 6910 ng/mL
- Tmax ([21]; female, ICR, mouse, po, 100 mg/kg p.o., plasma, read-out: Tmax, Plasma): 12 min
- half-life ([21]; female, ICR, mouse, po, 100 mg/kg p.o., plasma, read-out: T½, Plasma (converted)): 12 min
- Dose linearity ([21]; p.o., plasma Cmax and AUC0–inf at 10 and 100 mg/kg): very good
- fraction unbound [22]: 0.109
- M. smegmatis ΔprcAB MIC50 ([23]; 24 h exposure, OD600, concentration inhibiting 50% of growth): 2.7 ± 0.5 µM
- improvement of bacterial-growth inhibition compared to compound 1 ([23]; M. smegmatis ΔprcAB): over 2 fold
- IC50 [24]: > 10 µM
